The numbers were not newly measured in US20250186477A1, “COMPOSITIONS COMPRISING FLUDARABINE PHOSPHATE AND METHODS OF MAKING AND USING SAME TO TREAT CANCER” (Areva Pharmaceuticals Limited, priority 2023, published 2025), which cites them from elsewhere.

The structures appear in SMILES notation.

The conditions of this series: refractory chronic lymphocytic leukemia patients receiving 22-40 mg/m^2 or 15-25 mg/m^2 fludarabine daily.

Take `Nc1nc(F)nc2c1ncn2[C@@H]1O[C@H](CO)[C@@H](O)[C@@H]1O` [fludarabine, (2R,3S,4S,5R)-2-(6-amino-2-fluoropurin-9-yl)-5-(hydroxymethyl)oxolane-3,4-diol]: the pneumonia entry is given as “high rates of pneumonia”.
